The text below walks through data of patent US20180030546A1, “Identification of a 5-Gene Expression Signature Predicting Clinical Outcome of Patients with Brain Tumors” (THE TRUSTEES OF COLUMBIA UNIVERSITY IN THE CITY OF NEW YORK, priority 2012, published 2018).

Structures are written as SMILES.

The subject of experiment [1] is Ras-V12-IRES-Cre-ER-shp53 HGG. The experiment is described as follows: Survival of glioma-bearing Id-cTKO mice treated with tamoxifen or oil. It is filed as in vivo, mouse.
Experiment [2] deals with Ras-V12-IRES-Cre-ER-shp53 HGG. Nature of the experiment: Histology and immunostaining of Ras-V12-IRES-Cre-ER-shp53 tumors after tamoxifen or oil. It is filed as in vivo, mouse. The method, then: (§1) Tissue preparation and immunohistochemistry on brain tumors and immunofluorescence staining were performed as previously described (26, 50, 51). In histograms, values represent the mean values; error bars are standard deviations (SD) or standard error of the mean (SEM) as indicated in Figure legends. Statistical significance was determined by t test (two-tailed) using GraphPad Prism 4.0 software (GraphPad Inc., San Diego, Calif.). Quantification of the IL-6 intensity staining in was performed using NIH Image J software (http://rsb.info.nih.gov/ij/). The histogram of the intensity of fluorescence of each point of a representative field for each condition was generated. The fluorescence intensity of three fields from three independent tumors was scored, and standardized to the number of cells in the field.
Intracranial injection of Ras-V12-IRES-Cre-ER-shp53 lentivirus was performed in 4-week-old Id-cTKO mice in accordance with guidelines of the […] Animal Care and Use Committee. Briefly, 1.3 μl of purified lentiviral particles in PBS (1×10^9/ml) were injected 1.45 mm lateral and 1.6 mm anterior to the bregma, and 2.3 mm below the skull using a stereotaxic frame (Kopf Instruments). Orthotopic implantation of mouse glioma cells was performed as described using 50,000 cells in 2 μof phosphate buffer (26). […] Mice were monitored daily and sacrificed when neurological symptoms appeared. Tumor volume was obtained using three-dimensional measurements in the formula for an ellipsoid: [Length×Width×Height×(π/6)]. The dimensions were derived from a complete, H&E stained, histological sectioning of the mouse brain. The length was determined by counting the number of sections containing tumor cells and multiplying it by the section thickness. […] Kaplan-Meier survival curve was generated using the DNA Statview software package (AbacusConcepts, Berkeley, Calif.).

In experiment [3] the test system is GICs from HrasV12-Cre-ER-shp53 glioma. Nature of the experiment: Glioma sphere formation and limiting dilution assay. The format is cell-based, mouse. The method, then:
For human and mouse glioma sphere formation, cells were infected with lentiviral particles. Three days later single cells were plated at density of ≦3 cells/well in triplicate in low attachment 96 well plates. The number and the size of spheres were scored after 10-14 days. Limiting dilution assay was performed as described previously (24). Spheres were dissociated into single cells and plated in 96-well plates in 0.2 ml of medium containing growth factors. Cultures were left undisturbed for 10 days, and then the percentage of wells not containing spheres for each cell dilution was calculated and plotted against the number of cells per well. Linear regression lines were plotted, and the number of cells required to generate at least one sphere in every well (=the stem cell frequency) was calculated. The experiment was repeated twice.

The subject of experiment [4] is SSEA1 and ITGα6 positive GICs. The experiment is described as follows: Proximity of GICs to CD31 positive endothelial cells in the perivascular niche. The format is in vivo, mouse. To be noted: Id-cTKO tumors versus controls. Here is the method:
as §1

In the case of `CC/C(=C(\c1ccccc1)c1ccc(OCCN(C)C)cc1)c1ccccc1` [tamoxifen], the “mice alive after a median of twenty weeks” value in experiment [1] (Id-cTKO mice, HrasV12-Cre-ER-shp53 lentivirus, tamoxifen by feeding needle, 4-day cycles from day 12, seven of eleven mice) amounted to 64%. Moreover, the tumor growth result in experiment [1] (wild type animals infected with HrasV12-Cre-ER-shp53 lentivirus (without ID ablation), data not shown) is “did not affect tumor growth”. Besides, in experiment [2] (Id-cTKO mice sacrificed six weeks after tumor initiation), the “tumors with dramatic reduction of tumor volume compared with carrier-treated tumors” value is listed as 80%. In addition, the “reduction in the proliferation rate measured by Ki67 immunoreactivity” value in experiment [2] (Id-cTKO mice, six weeks after tumor initiation, versus control tumors) was “four-fold”. The “ID1 and ID2 expression in advanced tumors by immunofluorescence” value in experiment [2] (seven days after a single four-day cycle of tamoxifen treatment) is “loss of ID1 and ID2 expression”. The tumor-sphere forming capacity entry in experiment [3] (GICs derived from Id1wt/wt;Id2wt/wt;Id3-/- mice) is recorded as “no effect”; in experiment [3] (GICs isolated from Id-cTKO mice), “abolished”. In experiment [3] (limiting dilution, cells from freshly dissociated tumors of treated animals, control 3.84%±0.51), the “minimal frequency of glioma cells endowed with stem cell capacity” value is 0.29%±0.02. In addition, the “reduction of the fraction of GICs residing within 10 μm from CD31-positive cells” value in experiment [4] is on record as “five-fold”.
